{
  "source": "ChEMBL document CHEMBL3508693",
  "about": "(2016)",
  "key": {"[1]": {"test": "AUC of SPP100 following single intravenous dose of [14C] aliskiren hemifumarate at 1 mg.Kg-1 level in marmoset", "type": "ADME, organism-based, Callithrix jacchus, Plasma", "conditions": "in vivo"}, "CYP2A6": {"target": "T1, CYP2A6 (Homo sapiens, UniProt P11509)", "T1 sequence (P11509 whole entry)": "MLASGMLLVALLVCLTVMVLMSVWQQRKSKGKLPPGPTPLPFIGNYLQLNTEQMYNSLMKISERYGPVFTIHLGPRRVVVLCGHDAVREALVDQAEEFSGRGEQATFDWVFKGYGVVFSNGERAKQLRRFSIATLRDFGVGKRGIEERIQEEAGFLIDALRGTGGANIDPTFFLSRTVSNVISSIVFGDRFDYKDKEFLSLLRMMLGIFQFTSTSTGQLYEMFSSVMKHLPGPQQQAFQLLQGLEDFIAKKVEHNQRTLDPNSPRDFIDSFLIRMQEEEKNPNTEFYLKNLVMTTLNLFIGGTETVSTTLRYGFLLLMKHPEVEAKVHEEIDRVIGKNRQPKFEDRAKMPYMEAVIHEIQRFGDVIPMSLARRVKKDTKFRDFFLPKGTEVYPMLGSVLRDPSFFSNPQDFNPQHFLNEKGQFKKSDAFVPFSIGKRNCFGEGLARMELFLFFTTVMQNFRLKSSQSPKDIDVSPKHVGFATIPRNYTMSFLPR", "test": "Inhibitory activity of 200 uM SPP100 on 37 Pmoles of cDNA-derived CYP2A6 enzyme in microsome prepared from human lymphoblastoid cell line", "type": "ADME, microsomes", "parameters": "conc 200 uM, interact cpd conc 3 uM", "conditions": "probe coumarine"}, "CYP1A2": {"target": "T2, CYP1A2 (Homo sapiens, UniProt P05177)", "T2 sequence (P05177 whole entry)": "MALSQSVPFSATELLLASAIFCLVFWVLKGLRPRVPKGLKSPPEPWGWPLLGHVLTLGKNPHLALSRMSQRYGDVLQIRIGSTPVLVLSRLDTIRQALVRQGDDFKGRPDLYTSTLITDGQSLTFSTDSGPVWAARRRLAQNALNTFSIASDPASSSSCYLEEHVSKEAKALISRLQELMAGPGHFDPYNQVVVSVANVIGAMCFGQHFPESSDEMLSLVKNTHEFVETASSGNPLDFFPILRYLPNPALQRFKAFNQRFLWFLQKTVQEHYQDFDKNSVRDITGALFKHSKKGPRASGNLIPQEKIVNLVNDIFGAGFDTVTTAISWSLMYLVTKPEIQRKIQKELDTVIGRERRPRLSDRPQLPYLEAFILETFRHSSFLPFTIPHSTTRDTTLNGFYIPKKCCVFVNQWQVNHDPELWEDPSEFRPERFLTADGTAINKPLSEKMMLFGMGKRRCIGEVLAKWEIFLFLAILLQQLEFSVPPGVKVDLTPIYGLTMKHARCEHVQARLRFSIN", "test": "Inhibitory activity of 200 uM SPP100 on 578 Pmoles of cDNA-derived CYP1A2 enzyme in microsome prepared from human lymphoblastoid cell line", "type": "ADME, microsomes", "parameters": "conc 200 uM, interact cpd conc 50 uM", "conditions": "probe phenacetin"}, "CYP2C9": {"target": "CYP2C9 (Homo sapiens, UniProt P11712)", "sequence (P11712 whole entry)": "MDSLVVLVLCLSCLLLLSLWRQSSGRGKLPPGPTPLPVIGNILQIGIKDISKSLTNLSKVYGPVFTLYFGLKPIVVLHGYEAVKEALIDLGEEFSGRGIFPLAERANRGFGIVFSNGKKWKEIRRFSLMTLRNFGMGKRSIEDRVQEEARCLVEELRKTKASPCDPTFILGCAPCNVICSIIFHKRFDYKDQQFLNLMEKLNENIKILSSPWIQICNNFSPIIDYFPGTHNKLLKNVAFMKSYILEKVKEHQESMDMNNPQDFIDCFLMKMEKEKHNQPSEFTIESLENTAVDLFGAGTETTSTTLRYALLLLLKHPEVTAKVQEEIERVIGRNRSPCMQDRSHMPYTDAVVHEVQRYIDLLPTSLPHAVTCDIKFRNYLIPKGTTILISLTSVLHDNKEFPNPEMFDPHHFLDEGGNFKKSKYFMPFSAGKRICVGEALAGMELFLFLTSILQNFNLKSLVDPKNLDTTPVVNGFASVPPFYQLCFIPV", "test": "Inhibitory activity of 200 uM SPP100 on 222 Pmoles of cDNA-derived CYP2C9 enzyme in microsome prepared from human lymphoblastoid cell line", "type": "ADME, microsomes", "parameters": "conc 200 uM, interact cpd conc 6 uM", "conditions": "probe diclofenac"}, "[2]": {"test": "Mean excretion of radioactivity (0-96h) in urine and faeces following single intravenous dose of 10 mg.Kg-1 [14C] aliskiren hemifumarate in rat", "type": "ADME, organism-based, Albino HAN:WIST, Urine/Feces", "conditions": "in vivo"}, "[3]": {"test": "AUC of [14C] aliskiren hemifumarate following single intravenous dose of [14C] aliskiren hemifumarate at 10 mg.Kg-1 level in mouse", "type": "ADME, organism-based, TgRasH2, Plasma", "conditions": "in vivo"}, "[4]": {"test": "% of radioactivity (48h) recovered in urine of receiver rat following duodenal infusion of radioactivity through bile from donor rat treated with single intravenous administration of 10 mg.Kg-1 [14C] aliskiren hemifumarate", "type": "ADME, organism-based, HAN:WIST(SPF)", "conditions": "in vivo"}, "[5]": {"test": "Excretion (24h) of radioactivity in faeces following oral administration of [14C] aliskiren hemifumarate at 100 mg.Kg-1 level in rat", "type": "ADME, organism-based, Lister-Hooded, Feces", "conditions": "in vivo"}, "[6]": {"test": "Mean excretion of radioactivity (48-72h) in urine and faeces following single oral dose of 500 mg.Kg-1 [14C] aliskiren hemifumarate in mouse", "type": "ADME, organism-based, TgRasH2, Urine/Feces", "conditions": "in vivo"}, "[7]": {"test": "Concentration of radioactivity in the liver following repeated oral administration of [14C] aliskiren hemifumarate at 100 mg.Kg-1 level studied at 2h after 7th dose in rat", "type": "ADME, organism-based, Albino HAN:WIST", "conditions": "in vivo"}, "[8]": {"test": "Cmax of aliskiren hemifumarate following 8 day once-daily dosing of SPP100B oral solution at 160 mg level studied on day 8 in men", "type": "ADME, organism-based", "conditions": "male, human, plasma"}, "[9]": {"test": "Elimination half-life of aliskiren hemifumarate following repeated oral administration of [14C] aliskiren hemifumarate at 100 mg.Kg-1 level studied in rat", "type": "ADME, organism-based, Albino HAN:WIST", "conditions": "in vivo"}, "[10]": {"test": "AUC (0-24h)/dose of aliskiren hemifumarate following 4 week oral dietary dosing of aliskiren hemifumarate at 500 mg.Kg-1 level in male mouse", "type": "ADME, organism-based, CB6F1-TGrasH2, Plasma", "conditions": "in vivo"}, "[11]": {"test": "Cmaxspec of aliskiren hemifumarate following 2 week oral dosing of aliskiren hemifumarate at 10 mg.Kg-1 level studied on day 1 in male Callithrix jacchus", "type": "ADME, organism-based, Plasma", "conditions": "marmoset, in vivo, 336 h"}, "[12]": {"test": "t1/2 of aliskiren hemifumarate following 2 week oral dosing of aliskiren hemifumarate at 100 mg.Kg-1 level studied on day 1 in male Callithrix jacchus", "type": "ADME, organism-based", "conditions": "marmoset, plasma"}, "[13]": {"test": "AUC (0-24h) of aliskiren hemifumarate following 4 week oral dietary dosing of aliskiren hemifumarate at 1000 mg.Kg-1 level in female mouse", "type": "ADME, organism-based", "conditions": "CB6F1-TGrasH2, mouse, plasma"}, "[14]": {"test": "Tmax of aliskiren hemifumarate following 2 week oral dosing of aliskiren hemifumarate at 10 mg.Kg-1 level studied on day 1 in male Callithrix jacchus", "type": "ADME, organism-based", "conditions": "marmoset, plasma"}, "[15]": {"test": "t1/2 of aliskiren hemifumarate following 2 week oral dosing of aliskiren hemifumarate at 100 mg.Kg-1 level studied on day 14 in male Callithrix jacchus", "type": "ADME, organism-based", "conditions": "marmoset, plasma"}, "[16]": {"target": "Voltage-gated inwardly rectifying potassium channel KCNH2 (Homo sapiens, UniProt Q12809)", "sequence (Q12809 whole entry)": "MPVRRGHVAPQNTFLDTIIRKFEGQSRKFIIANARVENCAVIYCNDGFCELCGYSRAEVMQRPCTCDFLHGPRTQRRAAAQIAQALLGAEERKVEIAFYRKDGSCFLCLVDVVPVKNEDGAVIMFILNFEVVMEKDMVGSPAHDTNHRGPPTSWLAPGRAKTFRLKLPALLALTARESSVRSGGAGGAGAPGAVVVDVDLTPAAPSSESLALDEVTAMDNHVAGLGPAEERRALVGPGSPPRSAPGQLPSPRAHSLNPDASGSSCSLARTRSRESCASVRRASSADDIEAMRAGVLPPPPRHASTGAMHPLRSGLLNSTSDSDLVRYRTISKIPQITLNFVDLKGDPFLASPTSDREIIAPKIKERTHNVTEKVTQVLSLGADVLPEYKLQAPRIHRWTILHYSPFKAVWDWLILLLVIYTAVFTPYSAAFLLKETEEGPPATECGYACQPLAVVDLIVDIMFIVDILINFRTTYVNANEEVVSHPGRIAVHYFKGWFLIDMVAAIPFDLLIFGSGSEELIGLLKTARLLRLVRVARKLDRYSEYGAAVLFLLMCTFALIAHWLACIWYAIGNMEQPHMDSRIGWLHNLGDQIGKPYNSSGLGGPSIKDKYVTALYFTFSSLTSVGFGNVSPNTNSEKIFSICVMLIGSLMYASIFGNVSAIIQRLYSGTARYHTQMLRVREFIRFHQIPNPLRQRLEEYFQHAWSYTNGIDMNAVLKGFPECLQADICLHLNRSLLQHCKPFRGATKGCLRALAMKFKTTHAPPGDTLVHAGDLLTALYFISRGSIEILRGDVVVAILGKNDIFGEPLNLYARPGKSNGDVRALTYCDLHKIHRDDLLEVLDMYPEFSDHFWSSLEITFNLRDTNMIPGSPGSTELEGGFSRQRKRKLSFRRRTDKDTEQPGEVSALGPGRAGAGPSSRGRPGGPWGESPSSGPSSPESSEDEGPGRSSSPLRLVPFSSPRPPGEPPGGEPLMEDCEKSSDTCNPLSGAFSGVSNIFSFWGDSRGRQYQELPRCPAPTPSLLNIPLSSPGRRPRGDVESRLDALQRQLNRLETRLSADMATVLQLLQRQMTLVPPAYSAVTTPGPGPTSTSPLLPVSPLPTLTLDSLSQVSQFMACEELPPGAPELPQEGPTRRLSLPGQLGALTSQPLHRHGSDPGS", "test": "Inhibitory concentration of aliskiren hemifumarate against cloned hERG channel expressed in human embryonic kidney cell", "type": "cell-based", "conditions": "hek293"}, "[17]": {"test": "Tmax of aliskiren hemifumarate following single dosing of SPP100B oral solution at 640 mg level studied on day 1 in men", "type": "ADME, organism-based", "conditions": "male, human, plasma"}, "[18]": {"test": "AUCspec of aliskiren hemifumarate following 2 week oral dosing of aliskiren hemifumarate at 50 mg.Kg-1 level studied on day 14 in male Callithrix jacchus", "type": "ADME, organism-based, Plasma", "conditions": "marmoset, in vivo, 336 h"}},
  "data": [
    {"smiles": "COCCCOc1cc(C[C@@H](C[C@H](N)[C@@H](O)C[C@H](C(=O)NCC(C)(C)C(N)=O)C(C)C)C(C)C)ccc1OC", "values": [
      {"measurement": "AUC", "setting": "[1]", "result": 23806, "unit": "ng·h/mL"},
      {"measurement": "inhibition at 200 µM", "setting": "CYP2A6", "result": 2.6, "unit": "%"},
      {"measurement": "inhibition at 200 µM", "setting": "CYP1A2", "result": -12.4, "unit": "%"},
      {"measurement": "inhibition at 200 µM", "setting": "CYP2C9", "result": 14.9, "unit": "%"}
    ]},
    {"smiles": "COCCCOc1cc(C[C@@H](C[C@H](N)[C@@H](O)C[C@H](C(=O)NCC([14CH3])([14CH3])C(N)=O)C(C)C)C(C)C)ccc1OC.O=C(O)/C=C/C(=O)O", "values": [
      {"measurement": "Radiolabel recovery", "setting": "[2]", "result": 94.8, "unit": "%"},
      {"measurement": "AUC", "setting": "[3]", "result": 5.01, "unit": "µM·h"},
      {"measurement": "Radiolabel recovery", "setting": "[4]", "result": 0.6, "unit": "%"},
      {"measurement": "Radiolabel recovery", "setting": "[5]", "result": 86, "unit": "%"},
      {"measurement": "Radiolabel recovery", "setting": "[6]", "result": 9.33, "unit": "%"},
      {"measurement": "Radiolabel recovery", "setting": "[7]", "result": "OUTCOME = Detected"}
    ]},
    {"smiles": "COCCCOc1cc(C[C@@H](C[C@H](N)[C@@H](O)C[C@H](C(=O)NCC(C)(C)C(N)=O)C(C)C)C(C)C)ccc1OC.COCCCOc1cc(C[C@@H](C[C@H](N)[C@@H](O)C[C@H](C(=O)NCC(C)(C)C(N)=O)C(C)C)C(C)C)ccc1OC.O=C(O)/C=C/C(=O)O", "note": "[ALISKIREN FUMARATE]", "values": [
      {"measurement": "Cmax", "setting": "[8]", "result": 39.1, "unit": "ng/mL"},
      {"measurement": "t1/2", "setting": "[9]", "result": 39.5, "unit": "h"},
      {"measurement": "AUC normalised", "setting": "[10]", "result": "3.41 ((ng/mL).hours)/(mg/kg/day)"},
      {"measurement": "Cmax normalised", "setting": "[11]", "result": "0.396 (ug/ml)/(mg/kg)"},
      {"measurement": "half-life", "setting": "[12]", "result": 12.8, "unit": "h"},
      {"measurement": "AUC(0-t) at 24 h", "setting": "[13]", "result": 2280, "unit": "ng·h/mL"},
      {"measurement": "Tmax", "setting": "[14]", "result": 1, "unit": "h"},
      {"measurement": "half-life", "setting": "[15]", "result": 7.8, "unit": "h"},
      {"measurement": "IC25", "setting": "[16]", "result": 670.9, "unit": "µM"},
      {"measurement": "IC50", "setting": "[16]", "result": "OUTCOME = IC50 was not calculated since inhibition did not reach 50% level"},
      {"measurement": "Tmax", "setting": "[17]", "result": 2.1, "unit": "h"},
      {"measurement": "AUC normalised", "setting": "[18]", "result": "2.14 ((ug.h.ml-1)/(mg/kg)"}
    ]}
  ]
}
